Literature values as cited in patent US10463641B2, “Method for using small molecule compounds to induce human tumor cells to be directly reprogrammed into non-oncogenic cells” (Transcend Cytotherapy Co., Ltd, priority 2015, dated 2019).

Tests used:
GSK-3β = GSK-3β (Homo sapiens, UniProt P49841); conditions: vs CDC2, ERK2 and other kinases
ALK2 = ALK2 (Homo sapiens, UniProt Q04771); conditions: DMH1
[1] = system: AMPK, ALK5, KDR (VEGFR-2) and PDGFR
BMP type II receptor = target: T1, BMP type II receptor (Homo sapiens, UniProt Q13873)
T1 sequence (Q13873 27-1038): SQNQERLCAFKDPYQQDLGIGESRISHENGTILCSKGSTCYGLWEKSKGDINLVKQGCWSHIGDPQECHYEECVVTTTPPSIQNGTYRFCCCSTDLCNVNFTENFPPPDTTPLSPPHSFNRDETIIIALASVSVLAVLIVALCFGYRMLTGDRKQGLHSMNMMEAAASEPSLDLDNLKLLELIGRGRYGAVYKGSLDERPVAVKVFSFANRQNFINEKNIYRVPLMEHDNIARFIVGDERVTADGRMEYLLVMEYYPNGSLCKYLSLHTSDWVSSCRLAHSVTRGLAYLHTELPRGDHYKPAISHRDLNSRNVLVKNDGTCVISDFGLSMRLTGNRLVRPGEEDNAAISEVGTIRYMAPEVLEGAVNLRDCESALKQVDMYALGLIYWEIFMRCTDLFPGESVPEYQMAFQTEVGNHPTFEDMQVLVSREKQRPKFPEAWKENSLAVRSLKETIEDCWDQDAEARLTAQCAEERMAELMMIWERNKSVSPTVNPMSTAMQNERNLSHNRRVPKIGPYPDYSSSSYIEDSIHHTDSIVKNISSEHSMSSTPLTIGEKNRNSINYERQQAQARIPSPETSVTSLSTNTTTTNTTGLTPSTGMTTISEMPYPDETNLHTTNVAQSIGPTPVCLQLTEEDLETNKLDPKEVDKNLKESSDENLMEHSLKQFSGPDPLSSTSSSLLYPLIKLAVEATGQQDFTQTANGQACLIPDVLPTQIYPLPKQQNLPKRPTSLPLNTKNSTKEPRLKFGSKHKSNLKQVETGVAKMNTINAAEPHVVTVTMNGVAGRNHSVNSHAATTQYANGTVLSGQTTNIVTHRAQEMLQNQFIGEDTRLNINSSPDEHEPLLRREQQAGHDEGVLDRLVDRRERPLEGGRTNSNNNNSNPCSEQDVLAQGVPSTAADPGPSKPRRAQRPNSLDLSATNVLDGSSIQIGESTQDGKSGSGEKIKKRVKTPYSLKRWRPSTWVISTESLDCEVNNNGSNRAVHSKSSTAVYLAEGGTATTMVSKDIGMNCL

[2] = system: TGF-β type II receptor and activin type II receptor
BMP type I receptor ALK3 = conditions: C2C12 cells; read-out: IC50, transcription activity of BMP type I receptor ALK3
ALK1 = ALK1 (Homo sapiens, UniProt P37023)
Sequence of ALK1 (P37023 22-503, species assumed): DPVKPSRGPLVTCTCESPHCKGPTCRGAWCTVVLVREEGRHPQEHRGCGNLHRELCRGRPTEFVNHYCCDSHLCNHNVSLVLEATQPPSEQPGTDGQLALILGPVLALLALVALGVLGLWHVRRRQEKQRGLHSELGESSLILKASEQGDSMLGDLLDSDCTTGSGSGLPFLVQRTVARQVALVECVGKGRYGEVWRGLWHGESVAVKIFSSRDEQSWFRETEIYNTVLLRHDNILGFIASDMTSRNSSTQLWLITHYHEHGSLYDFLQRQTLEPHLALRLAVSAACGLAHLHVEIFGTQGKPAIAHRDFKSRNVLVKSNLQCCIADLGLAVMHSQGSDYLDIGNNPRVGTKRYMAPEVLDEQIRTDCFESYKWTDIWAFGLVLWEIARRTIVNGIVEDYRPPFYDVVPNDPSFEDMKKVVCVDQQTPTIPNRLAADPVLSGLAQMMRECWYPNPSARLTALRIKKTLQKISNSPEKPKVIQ

ALK6 = ALK6 (Homo sapiens, UniProt O00238)
Sequence of ALK6 (O00238 14-502): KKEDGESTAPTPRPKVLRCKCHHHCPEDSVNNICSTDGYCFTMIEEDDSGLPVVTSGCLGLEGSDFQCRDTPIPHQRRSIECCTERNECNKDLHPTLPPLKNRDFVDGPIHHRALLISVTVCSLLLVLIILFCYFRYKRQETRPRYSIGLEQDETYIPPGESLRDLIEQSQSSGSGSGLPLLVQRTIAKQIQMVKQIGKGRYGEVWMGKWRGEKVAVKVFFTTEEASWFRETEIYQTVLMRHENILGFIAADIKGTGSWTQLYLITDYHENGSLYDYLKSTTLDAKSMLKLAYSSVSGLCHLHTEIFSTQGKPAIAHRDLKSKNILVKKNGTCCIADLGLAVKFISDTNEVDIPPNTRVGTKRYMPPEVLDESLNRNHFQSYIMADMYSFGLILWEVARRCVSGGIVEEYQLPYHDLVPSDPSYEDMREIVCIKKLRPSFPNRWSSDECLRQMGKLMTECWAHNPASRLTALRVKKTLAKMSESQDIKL

ALK7 = target: T2, ALK7 (Homo sapiens, UniProt Q8NER5); conditions: qualitative
T2 sequence (Q8NER5 21-493): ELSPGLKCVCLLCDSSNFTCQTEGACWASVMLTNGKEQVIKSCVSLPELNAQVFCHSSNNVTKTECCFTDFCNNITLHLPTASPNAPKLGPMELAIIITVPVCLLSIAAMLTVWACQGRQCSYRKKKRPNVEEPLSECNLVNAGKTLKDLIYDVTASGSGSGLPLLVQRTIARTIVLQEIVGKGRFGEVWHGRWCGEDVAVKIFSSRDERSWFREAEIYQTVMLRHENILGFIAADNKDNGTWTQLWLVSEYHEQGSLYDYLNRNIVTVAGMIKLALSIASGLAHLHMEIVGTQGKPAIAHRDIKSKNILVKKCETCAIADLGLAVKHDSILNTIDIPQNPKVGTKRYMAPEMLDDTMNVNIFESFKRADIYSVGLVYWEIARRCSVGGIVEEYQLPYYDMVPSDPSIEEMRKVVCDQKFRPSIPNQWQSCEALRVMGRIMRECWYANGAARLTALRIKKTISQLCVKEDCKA

ALK4 = target: T3, ALK4 (Homo sapiens, UniProt P36896); conditions: ALK4 vs ALK5
T3 sequence (P36896 24-505): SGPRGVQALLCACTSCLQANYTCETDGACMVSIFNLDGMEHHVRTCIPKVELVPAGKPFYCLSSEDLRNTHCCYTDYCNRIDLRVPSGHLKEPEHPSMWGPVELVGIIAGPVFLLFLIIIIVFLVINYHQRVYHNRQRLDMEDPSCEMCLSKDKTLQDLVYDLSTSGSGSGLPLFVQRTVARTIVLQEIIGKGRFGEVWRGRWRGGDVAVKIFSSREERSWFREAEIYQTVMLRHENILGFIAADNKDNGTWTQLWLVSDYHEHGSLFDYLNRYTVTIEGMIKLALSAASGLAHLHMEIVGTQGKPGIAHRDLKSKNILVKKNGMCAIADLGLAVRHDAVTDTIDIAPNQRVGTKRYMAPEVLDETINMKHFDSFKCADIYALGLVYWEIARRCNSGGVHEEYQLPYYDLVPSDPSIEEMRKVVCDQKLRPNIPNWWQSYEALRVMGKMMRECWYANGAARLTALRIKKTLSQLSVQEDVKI

ALK5 = ALK5 (Homo sapiens, UniProt P36897); conditions: vs TGF-βRII
Sequence of ALK5 (P36897 34-503, species assumed): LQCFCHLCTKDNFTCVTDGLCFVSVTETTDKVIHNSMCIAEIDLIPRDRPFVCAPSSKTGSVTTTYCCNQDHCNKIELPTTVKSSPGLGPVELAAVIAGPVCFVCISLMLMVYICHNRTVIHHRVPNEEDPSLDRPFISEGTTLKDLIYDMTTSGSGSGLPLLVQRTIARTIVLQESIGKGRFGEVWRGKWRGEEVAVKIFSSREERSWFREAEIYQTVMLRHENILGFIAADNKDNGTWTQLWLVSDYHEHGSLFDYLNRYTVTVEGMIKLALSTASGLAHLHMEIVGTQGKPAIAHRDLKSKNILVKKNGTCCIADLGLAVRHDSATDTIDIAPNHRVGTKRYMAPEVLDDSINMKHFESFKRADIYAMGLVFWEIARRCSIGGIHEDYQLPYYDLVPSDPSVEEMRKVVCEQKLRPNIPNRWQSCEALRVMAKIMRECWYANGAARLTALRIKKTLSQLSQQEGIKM

Sequence of ALK2 (Q04771 21-509): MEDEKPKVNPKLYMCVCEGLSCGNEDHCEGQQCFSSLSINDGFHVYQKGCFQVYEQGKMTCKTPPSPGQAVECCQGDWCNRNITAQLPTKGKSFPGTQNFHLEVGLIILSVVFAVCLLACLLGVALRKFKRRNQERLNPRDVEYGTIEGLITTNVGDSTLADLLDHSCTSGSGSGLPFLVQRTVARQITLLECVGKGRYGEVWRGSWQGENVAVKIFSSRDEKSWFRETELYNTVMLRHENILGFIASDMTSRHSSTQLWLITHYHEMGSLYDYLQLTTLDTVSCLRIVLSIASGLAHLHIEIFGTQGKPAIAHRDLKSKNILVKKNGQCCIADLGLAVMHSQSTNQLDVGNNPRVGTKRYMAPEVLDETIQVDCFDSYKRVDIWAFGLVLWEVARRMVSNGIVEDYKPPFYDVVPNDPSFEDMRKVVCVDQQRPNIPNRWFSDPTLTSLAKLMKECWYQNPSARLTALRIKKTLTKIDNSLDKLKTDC
Sequence of GSK-3β (P49841 whole entry): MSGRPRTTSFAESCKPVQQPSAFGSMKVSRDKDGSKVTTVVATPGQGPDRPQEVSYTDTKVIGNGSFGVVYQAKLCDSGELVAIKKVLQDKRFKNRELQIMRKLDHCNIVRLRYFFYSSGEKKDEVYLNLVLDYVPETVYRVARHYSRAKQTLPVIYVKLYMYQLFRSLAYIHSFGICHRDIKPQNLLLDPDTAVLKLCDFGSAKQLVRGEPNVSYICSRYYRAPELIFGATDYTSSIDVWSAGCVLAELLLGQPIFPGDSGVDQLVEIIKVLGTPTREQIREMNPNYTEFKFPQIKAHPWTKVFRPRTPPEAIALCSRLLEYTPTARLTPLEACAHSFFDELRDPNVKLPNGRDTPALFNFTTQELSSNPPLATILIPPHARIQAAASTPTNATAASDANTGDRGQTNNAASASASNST

Molecule: Cc1cnc(-c2cnc(NCCNc3ccc(C#N)cn3)nc2-c2ccc(Cl)cc2Cl)[nH]1 [CHIR-99021]
- inhibition of GSK-3 stronger than inhibition on CDC2, ERK2 and other kinases (GSK-3β): 500 fold

Molecule: CC(C)Oc1ccc(-c2cnc3c(-c4ccnc5ccccc45)cnn3c2)cc1 [DMH1]
- IC50 (ALK2): 108 nM
- inhibiting activity on AMPK, ALK5, KDR (VEGFR-2) and PDGFR [1]: no inhibiting activity

Molecule: O=C(NC1CCOCC1)c1ccc(-c2cc(-c3c[nH]nc3-c3ccccn3)ccn2)cc1 [GW788388]
- inhibition of BMP type II receptor (BMP type II receptor): not BMP type II receptor
- inhibition of TGF-β type II receptor and activin type II receptor [2]: also inhibiting

Molecule: c1ccc2c(-c3cnn4cc(-c5ccc(N6CCNCC6)cc5)cnc34)ccnc2c1 [LDN-193189]
- selectivity on BMP higher than on TGF-β (BMP type I receptor ALK2; BMP vs TGF-β): 200 fold
- IC50 (BMP type I receptor ALK2; C2C12 cells, read-out: IC50, transcription activity of BMP type I receptor ALK2): 5 nM
- IC50 (BMP type I receptor ALK3): 30 nM

Molecule: COc1cc(-c2cc(-c3cccc(O)c3)cnc2N)cc(OC)c1OC [Medium K02288]
- inhibiting activity on other ALK5 (3, 4, 5) and ActRIIa (and ActRIIa): slight inhibiting activity
- IC50 (ALK1): 1.8 nM
- IC50 (ALK6): 6.4 nM

Molecule: Cc1cccc(-c2[nH]c(C(C)(C)C)nc2-c2ccc3c(c2)OCO3)n1 [SB505124]
- inhibition of ALK7 (ALK7): also inhibiting ALK7
- inhibition of ALK1, 2, 3 or 6 (ALK1, 2, 3 or 6): not ALK1, 2, 3 or 6

Molecule: Cc1cccc(-c2[nH]c(C(C)(C)C)nc2-c2ccc3nccnc3c2)n1 [SB525334]
- effect on ALK4 lower than on ALK5 (ALK4): 4 fold
- activity to ALK2, 3 and 6 (ALK2, 3 and 6): no activity

Molecule: SD-208
- selectivity for TGF-βRI (ALK5) higher than on TGF-βRII (ALK5): more than 100 fold
